Data set [1] deals with tumour cells (at least 4 of a panel of ovarian, breast, lung, pancreatic, placenta, colon cell lines). The experiment in a line: In vitro cytotoxicity (cell proliferation, CellTiter-Glo), average over tumour cell line panel. The data set is classed as cell-based. The conditions noted are these: average pIC50 on all cell lines tested; 5 nights incubation; CellTiter-Glo. The protocol:
The ability of representative compounds of Formula I to inhibit proliferation of tumour cells in vitro was evaluated in at least 4 of the following cell lines: OVCAR-3 (ovarian, ATCC), SKOV-3 (ovarian, ATCC), IGROV-1 (ovarian, national research council of Canada (NRC)), OV-90 (ovarian, ATCC), OVKATE (Ovarian, Japanese Collection of Research Bioresources (JCRB) (JCRB1044)), JIMT-1 (breast, NRC), SK-BR-3 (breast, ATCC), T-47D (breast, ATCC), ZR-75-1 (breast, ATCC), MDA-MB-468 (breast, AddexBio), BT-20 (breast, ATCC), BT-474 (breast, NRC), MDA-MB-175 (breast, AddexBio), A549 (lung, collaborator), NCI-H226 (lung, NRC), NCI-H661 (lung, NRC), NCI-H1573 (lung, ATCC). NCI-H1563 (lung, ATCC), H358 (lung, collaborator), EBC-1 (lung, Xenotech), H1299 (lung, NRC), NCI-H292 (lung, ATCC), HCC817 (lung, ATCC), NCI-H441 (lung, ATCC), MIA-PaCa-2 (pancreatic, ATCC), BxPC-3 (pancreatic, ATCC), Panc-1 (pancreatic, ATCC), AsPC-1 (pancreatic, ATCC), JEG-3 (placenta, AddexBio), HT-29 (colon, ATCC).
Cells were cultured per vendor instructions and in log-phase growth were detached by brief incubation in 0.05% trypsin, then resuspended in respective culturing media at 20,000 cells/mL (except for ZR-75 cells, which were resuspended at 10,000 cells/mL). 50 μL/well (˜1000 cells/well) were transferred to sterile tissue culture (TC)-treated 384-well plates (ThermoFisher Scientific, Catalogue #164610) and incubated overnight at 37° C. with 5% CO2 to allow the cells to adhere to the plate surface. The next day, in a sterile, V-bottom, 96-well plate, test articles were titrated 1:3 in complete growth medium, creating a 10-point dose response titration with compounds at 3.5-times the desired final concentration. 20 μL from each dilution were added to the 384-well plate containing the seeded cells and these plates were incubated at 37° C. with 5% CO2 for 5 nights. Cell viability was quantified by first incubating with 15 μL/well of CellTiter-Glo® (Promega, Catalogue #G7572) for 30 minutes, then measuring luminescence with a microplate luminometer (BioTek® Synergy™ H1 Microplate Reader). IC50 values were determined by GraphPad Prism (GraphPad Software, San Diego, CA).
The results are presented in Table 7.1 and discussed in Example 7. Table 7.1 presents the results as average pIC50 values. pIC50=−log (IC50), thus, for example, pIC50=9 is equivalent to IC50=1 nM, and pIC50=6 is equivalent to IC50=1 μM.
A general note: Cellular ATP, detected with luciferase, serves as a proxy for viable cell number.

Data set [2] can be described thus: Lipophilicity by experimental HPLC retention time. The conditions noted are these: HPLC retention time as measure of lipophilicity; C18, 10 to 90% CH3CN/H2O with 0.1% FA over 25 min. The data set is classed as physicochemical. The protocol:
The ability to kill neighboring cells (i.e. bystander effect) is an important property for ADC payloads. For a payload comprising a compound of Formula I to be capable of bystander killing, membrane permeability (or transport) is required and the ability of compounds of Formula I to cross cell membranes and exert a cytotoxic effect was expected to be heavily influenced by lipophilicity.
Compounds were analyzed using an Agilent 1260 HPLC (Agilent Technologies, Inc., Santa Clara, CA) equipped with a Diode array detector and using a Phenomenex Kinetex EVO C18 150×4.6, 2.6 μm column (Phenomenex, Torrance, CA), eluting with 10 to 90% CH3CN/H2O with 0.1% FA over 25 min.

Data set [3] has as its system herring sperm DNA. The experiment in a line: DNA melting temperature by differential scanning calorimetry (DSC). The format is binding. The note with it: DSC; herring sperm DNA; DNA melting temperature = 68° C. On the procedure: Representative compounds prepared as described in Example 2 were assessed in two complementary DNA-binding assays. Increased melting temperature of herring sperm DNA was measured using differential scanning calorimetry (DSC) and binding kinetics were determined by surface plasmon resonance (SPR) using a short DNA hairpin sequence.
DSC experiments were conducted as described in Leng, 2003, Nucleic Acids Res., 31 (21): […], using a Nano DSC (TA Instruments, New Castle, DE) and analyzed using the NanoAnalyze™ software package. Herring sperm DNA solution (Invitrogen 15634017, 10 mg/mL) was diluted to 1 mg/mL (1.4 mM base pair) in BPE buffer (6 mM Na2HPO4, 2 mM NaH2PO4, 1 mM Na4EDTA, pH 7.0). Test articles (20 μL, 10 mM in DMSO) were added and allowed reach equilibrium binding (>3 h), any insoluble material was removed by low-speed centrifugation, then samples were heated from 25 to 110° C. at a scan rate of 1° C./min. Melting curves were plotted and melting temperature was determined using NanoAnalyze™.
In general terms: DSC measures the heat that a sample takes up or gives off during a temperature scan.

For data set [4] the following is noted: amide bond; 32-membered ring.

Consider `CC(C)[C@H]1C(=O)O[C@H](C)[C@@H](NC(=O)c2nc3ccccc3cc2O)C(=O)N2CCCC[C@H]2C(=O)NCC(=O)N(C)CC(=O)N(C)[C@@H](C(C)C)C(=O)O[C@H](C)[C@@H](NC(=O)c2nc3ccccc3cc2O)C(=O)N2CCCC[C@H]2C(=O)NCC(=O)N(C)CC(=O)N1C` [Compound 22, N,N′-((7R,8R,11S,19aS,26R,27R,30S,38aS)-11,30-diisopropyl-8,12,15,27,31,34-hexamethyl-6,10,13,16,19,25,29,32,35,38-decaoxodotriacontahydro-2H,6H,10H,25H-dipyrido[2,1-b1: 2′,1′-l][1,17]dioxa[4,7,10,13,20,23,26,29]octaazacyclodotriacontine-7,26-diyl)bis(3-hydroxyquinoline-2-carboxamide)], for which the “pIC50 (average)” value in data set [1] is recorded as 7.6. Also, in data set [2], the “HPLC” value is reported as 21.6 min. In addition, the “DNA melt (° C.)” value in data set [3] was 85 °C.
As to `CC[C@H](C)[C@H]1C(=O)NC[C@@H](NC(=O)c2nc3ccccc3cc2O)C(=O)N2CCCC[C@H]2C(=O)NCC(=O)N(C)CC(=O)N(C)[C@@H]([C@@H](C)CC)C(=O)O[C@H](C)[C@@H](NC(=O)c2nc3ccccc3cc2O)C(=O)N2CCCC[C@H]2C(=O)NCC(=O)N(C)CC(=O)N1C` [Compound 30, N,N′-((7R,8R,11S,19aS,26R,30S,38aS)-11,30-di((S)-sec-butyl)-8,12,15,31,34-pentamethyl-6,10,13,16,19,25,29,32,35,38-decaoxotetratriacontahydro-2H,6H,10H-dipyrido[2,1-b1: 2′,1′-l][1]oxa[4,7,10,13,17,20,23,26,29]nonaazacyclodotriacontine-7,26-diyl)bis(3-hydroxyquinoline-2-carboxamide)], in data set [1], the “pIC50 (average)” value is recorded as 8.3. Also, the “HPLC” value in data set [2] was 20.9 min. The “DNA melt (° C.)” value in data set [3] stood at 85 °C.
For `CC(C)[C@H]1C(=O)NC[C@@H](NC(=O)c2nc3ccccc3cc2O)C(=O)N2CCCC[C@H]2C(=O)NCC(=O)N(C)CC(=O)N(C)[C@@H](C(C)C)C(=O)NC[C@@H](NC(=O)c2nc3ccccc3cc2O)C(=O)N2CCCC[C@H]2C(=O)NCC(=O)N(C)CC(=O)N1C` [Compound 35, N,N′-((7R,11S,19aS,26R,30S,38aS)-11,30-diisopropyl-12,15,31,34-tetramethyl-6,10,13,16,19,25,29,32,35,38-decaoxohexatriacontahydro-2H,6H-dipyrido[1,2-a:1′,2′-q][1,4,7,10,13,17,20,23,26,29]decaazacyclodotriacontine-7,26-diyl)bis(3-hydroxyquinoline-2-carboxamide)] the same measures were 7.3, 17.1 min and 88 °C.
For the compound “Di-tert-butyl ((7R,8R,11S,19aS,26R,27R,30S,38aS)-11,30-diisopropyl-8,12,15,27,31,34-hexamethyl-6,10,13,16,19,25,29,32,35,38-decaoxodotriacontahydro-2H,6H,10H,25H-dipyrido[2,1-b1: 2′,1′-l][1,17]dioxa[4,7,10,13,20,23,26,29]octaazacyclodotriacontine-7,26-diyl)dicarbamate”, the ring closure, isolated yield in data set [4] stood at 50%.
On the same count and under the same terms, in the case of “Di-tert-butyl ((7R,11S,19aS,26R,30S,38aS)-11,30-diisopropyl-9,12,15,28,31,34-hexamethyl-6,10,13,16,19,25,29,32,35,38-decaoxohexatriacontahydro-2H,6H-dipyrido[1,2-a:1′,2′-q][1,4,7,10,13,17,20,23,26,29]decaazacyclodotriacontine-7,26-diyl)dicarbamate” it was 65%; in that of “Di-tert-butyl ((7R,11S,19aS,26R,30S,38aS)-11,30-diisopropyl-12,15,31,34-tetramethyl-6,10,13,16,19,25,29,32,35,38-decaoxotetratriacontahydro-2H,6H,10H-dipyrido[2,1-b1: 2′,1′-l][1]oxa[4,7,10,13,17,20,23,26,29]nonaazacyclodotriacontine-7,26-diyl)dicarbamate”, 86%; in that of “Dibenzyl ((7R,11S,19aS,26R,30S,38aS)-11-((R)-1-(tert-butoxy)ethyl)-30-isopropyl-12,15,31,34-tetramethyl-6,10,13,16,19,25,29,32,35,38-decaoxohexatriacontahydro-2H,6H-dipyrido[1,2-a:1′,2′-q][1,4,7,10,13,17,20,23,26,29]decaazacyclodotriacontine-7,26-diyl)dicarbamate”, 91%.
The same measure, in the same setting: under “Tert-butyl (4-nitrobenzyl) ((7R,11R,19aS,26R,30S,38aS)-11-((S)-sec-butyl)-30-isopropyl-12,15,31,34-tetramethyl-6,13,16,19,25,29,32,35,38-nonaoxotetratriacontahydro-2H,6H,10H-dipyrido[2,1-b1: 2′,1′-l][1]oxa[4,7,10,13,17,20,23,26,29]nonaazacyclodotriacontine-7,26-diyl)dicarbamate” stands 72%; under “Tert-butyl (4-nitrobenzyl) ((7R,11S,19aS,26R,30S,38aS)-11,30-diisopropyl-12,15,31,34-tetramethyl-6,10,13,16,19,25,32,35,38-nonaoxodotriacontahydro-2H,6H,10H,25H-dipyrido[2,1-b1: 2′,1′-l][1,17]dioxa[4,7,10,13,20,23,26,29]octaazacyclodotriacontine-7,26-diyl)dicarbamate”, 50%.
With “Tert-butyl (4-nitrobenzyl) ((7R,11S,19aS,26R,30S,38aS)-11,30-diisopropyl-12,15,31,34-tetramethyl-6,13,16,19,25,29,32,35,38-nonaoxotetratriacontahydro-2H,6H,10H-dipyrido[2,1-b1: 2′,1′-l][1]oxa[4,7,10,13,17,20,23,26,29]nonaazacyclodotriacontine-7,26-diyl)dicarbamate”, the ring closure, isolated yield in data set [4] came to 68%.
As to “di-tert-butyl ((7R,11S,19aS,26R,30S,38aS)-11,30-diisopropyl-12,15,31,34-tetramethyl-6,10,13,16,19,25,29,32,35,38-decaoxohexatriacontahydro-2H,6H-dipyrido[1,2-a:1′,2′-q][1,4,7,10,13,17,20,23,26,29]decaazacyclodotriacontine-7,26-diyl)dicarbamate”, the ring closure, isolated yield in data set [4] is 34%.

The values are drawn from patent publication US20240376154A1, “BIS-INTERCALATING PEPTIDES, CONJUGATES AND METHODS OF USE” (ZYMEWORKS BC INC., priority 2023, published 2024).
